Patent US12441768B2, “Compositions and methods for treating endometriosis” (EndoMet Biosciences, Inc., priority 2018, dated 2025)
Where a chain is given by its changes, count along the chain named. Several values for one entry are separate records, joined by “and”; a condition that tells them apart may be missing. Equal values may be shown once. Where a SMILES comes first, the peptide text is derived from it.

Experiments:
[1] = target: Wnt-responsive promoter (TCF/LEF); test: Wnt-dependent luciferase reporter assay; format: cell-based, murine
In short: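 EC50 (uM) derived from inhibition of luminescence in Wnt3a-stimulated murine 3T3 cells expressing luciferase under a TCF/LEF promoter, with peptides added across a concentration range and vehicle as control.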

β-catenin [2] = target: T1, β-catenin (Homo sapiens, UniProt P35222); test: KD50 measurement using competitive fluorescence polarization (FP) with labelled TCF4; format: binding; details: fluorescence polarization, β-catenin; for Kd: read-out: β-Cat FP KD
T1 sequence (P35222 1-781): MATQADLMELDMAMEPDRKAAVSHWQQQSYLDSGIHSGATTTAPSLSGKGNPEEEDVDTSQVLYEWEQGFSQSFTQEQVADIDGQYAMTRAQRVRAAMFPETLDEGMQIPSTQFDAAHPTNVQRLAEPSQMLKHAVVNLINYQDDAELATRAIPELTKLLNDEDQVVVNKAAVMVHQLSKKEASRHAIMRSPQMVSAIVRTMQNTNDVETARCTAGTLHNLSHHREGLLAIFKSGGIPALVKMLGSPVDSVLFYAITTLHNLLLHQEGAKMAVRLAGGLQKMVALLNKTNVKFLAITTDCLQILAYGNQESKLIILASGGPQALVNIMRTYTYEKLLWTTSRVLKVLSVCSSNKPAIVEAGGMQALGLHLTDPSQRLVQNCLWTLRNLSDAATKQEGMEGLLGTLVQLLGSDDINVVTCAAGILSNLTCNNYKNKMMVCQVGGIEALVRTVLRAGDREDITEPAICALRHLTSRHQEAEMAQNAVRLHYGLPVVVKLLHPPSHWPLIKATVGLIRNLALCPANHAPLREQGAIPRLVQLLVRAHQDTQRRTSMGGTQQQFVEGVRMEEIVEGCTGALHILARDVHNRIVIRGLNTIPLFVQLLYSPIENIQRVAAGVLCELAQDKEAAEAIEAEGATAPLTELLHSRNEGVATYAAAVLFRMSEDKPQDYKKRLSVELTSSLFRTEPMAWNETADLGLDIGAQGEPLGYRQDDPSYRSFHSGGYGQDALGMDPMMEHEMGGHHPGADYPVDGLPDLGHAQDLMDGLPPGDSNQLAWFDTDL
In short: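 5 nM labelled TCF4 was combined with 100 nM β-catenin at room temperature, then inhibitor was titrated in serial dilutions from 10 nM to 30 uM. Polarization was read at excitation 470 nm, emission 520 nm; displacement lowers the signal. Three independent experiments.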

[3] = tested on: colon cancer cell line (SW480); format: cell-based
Experimental: (§1) Peptides inhibiting β-catenin cause decreased cell viability in a colon cancer cell line (SW480) and endometriosis lesions excised from a disease animal model. Peptides from libraries described herein are characterized in their effect on cell viability, as measured using a luminescent cell viability assay (Cell Titer-Glo®, Promega, Madison, WI) and expressed as IC50 in Table 5. Peptide inhibitors were tested for their ability to inhibit cellular proliferation across 2 different β-catenin expressing pathogenic cell lines: a colon cancer cell line (SW480) and/or mouse EMS lesion cells derived from mouse model of disease. Both cells lines are naturally known to express high levels of β-catenin. Cell lines were incubated with varying concentrations of peptide concentration and assessed for viability after day 5 and 7 days. The CellTiter-Glo® Luminescent Cell Viability Assay (Promega) is used to detect viable cells. IC50 values are graphed and calculated using Prism software (GraphPad) based on the cell viability readouts. IC50 is used to assess inhibition of cell proliferation by peptide concentration and is used to calculate the inhibitory effect of each peptide across each line. The results are used to assess the therapeutic potency of the peptides. In the SW480 cell line, peptide inhibitors from Family 1 (SEQ ID NO:264) and Family 2 (SEQ ID NO:396) were added daily to the cell growth medium. After 7 days, cell viability was assessed with the Cell-Titer Glo kit (Promega, Madison, WI). […] IC50 was calculated for peptides based on the concentration at which 50% viability was observed (Table 5).

mouse EMS lesion cells = format: cell-based
Experimental: as §1

EMS lesion = details: across the subtypes of EMS; cited from earlier work
β-catenin [4] = target: T2, β-catenin (Mus musculus, UniProt Q02248); test: Immunohistochemistry of β-catenin localization in lesions, area thresholding; format: in vivo; details: IP daily for 3 weeks
T2 construct: from tissue; host or cells: endometriosis lesions of the mouse model
T2 sequence (Q02248 1-781): T1 sequence (P35222 1-781) with P706A
Experimental: Endometriosis was established in a mouse model of disease. Mice were allowed to establish endometriosis for 3 weeks. After the first 3 weeks, mice were then intraperitoneally treated daily for 3 weeks with the therapeutic peptides corresponding to SEQ ID NOs: 215 or 393 or untreated negative control. To assess the localization of the peptides and β-catenin, lesions from the endometriosis mouse model were assessed. On the last day of treatment, in order to visualize the peptide localization to the lesion(s), mice were dosed with a biotinylated tagged peptide therapeutic or control. Mice were euthanized, lesions were removed, and fixed in formalin for histology and immunohistochemistry. Fixed and sectioned lesions were incubated with antibodies specific for β-catenin (Cell Signaling, 1:100, Secondary: Fisher Scientific, Goat anti-Rabbit-647 1:200), streptavidin for biotinylated-therapeutic (Fisher Scientific, SA-405 1:100), and Sytox green for nucleus (Fisher Scientific, 1:300). Immunohistochemical negative controls were performed on lesion sections from all treatment groups using IgG non-specific antibodies (Rabbit-IgG, AbCam 1:100).
Quantification of β-catenin localization was performed using the Zeiss Blue Software via thresholding. Thresholding allows the software to calculate the area of staining using pixel intensity; therefore, a quantitative number for staining can be extrapolated for the different cellular compartments (See Table 6).

EMS lesions = details: 5 mg/kg IP daily for three weeks, versus vehicle
Source text: Lesions were established in an EMS mouse model of endometriosis by intraperitoneal injection of minced GFP+ uterine tissue from a mouse into wild-type c57/b16 mice. […] Endometrial disease was established in the mice and allowed to progress for three weeks prior to the initiation of therapy.

| EC50 [1] [µM] | β-Cat FP Hill slope (β-catenin [2]) | Kd (β-catenin [2]) [µM] | IC50 [3] [µM] | IC50 (mouse EMS lesion cells) [µM] | Molecule | % Viability non-Wnt responsive cells (non-Wnt responsive cells) [%] | EMS lesion progression (EMS lesion) | other results |
| --- | --- | --- | --- | --- | --- | --- | --- | --- |
| > 30 | 1.15 | – | – | – | CC[C@H](C)[C@@H]1NC(=O)[C@H](CC(C)C)NC(=O)[C@H](Cc2ccccc2)NC(=O)[C@H](Cc2c[nH]c3ccccc23)NC(=O)[C@@H](N)CCCCNC(=O)CC[C@@H](C(=O)N[C@@H](Cc2c[nH]c3ccccc23)C(=O)NCC(=O)O)NC(=O)[C@H](CS)NC1=O [compound 181] (HELM PEPTIDE1{K.W.F.L.I.C.E.W.G}$PEPTIDE1,PEPTIDE1,1:R3-7:R3$$$V2.0) | 89.16 | – | – |
| < 7.5 | 0.92 | 0.4 to 1 | – | – | CC[C@H](C)[C@H](NC(=O)[C@H](CC(C)C)NC(=O)[C@@H](NC(=O)[C@H](Cc1c[nH]c2ccccc12)NC(=O)[C@@H](N)CCSC)[C@@H](C)CC)C(=O)N[C@@H](CO)C(=O)N[C@@H](Cc1ccccc1)C(=O)N[C@@H](Cc1c[nH]c2ccccc12)C(=O)NCC(=O)O [compound 43] (H-MWILISFWG-OH) | 98.97 | – | – |
| 7.5 to 15 | 3 | 0.4 to 1 | 4 | 7.7 | CC[C@@H]1NC(=O)[C@H]([C@@H](C)CC)NC(=O)[C@H](CC(C)C)NC(=O)[C@H](CC2CCCCC2)NC(=O)[C@H](Cc2c[nH]c3ccccc23)NC(=O)[C@@H](NC(C)=O)CCCCNC(=O)C[C@@H](C(=O)O)NC(=O)[C@H](Cc2c[nH]c3ccccc23)NC(=O)[C@H](C)NC1=O [compound 261] (HELM PEPTIDE1{[ac].K.W.[Cha].L.I.[Abu].A.W.D}$PEPTIDE1,PEPTIDE1,2:R3-10:R3$$$V2.0) | – | – | – |
| – | – | – | – | – | CGP049090 | – | successfully reversed | – |
| < 7.5 | 0.96 | < 0.4 | – | – | CC[C@H](C)[C@H](NC(=O)[C@H](CC(C)C)NC(=O)[C@H](Cc1ccccc1)NC(=O)[C@H](Cc1c[nH]c2ccccc12)NC(=O)[C@@H](N)CCSC)C(=O)N[C@@H](CS)C(=O)N[C@@H](Cc1ccccc1)C(=O)N[C@@H](Cc1c[nH]c2ccccc12)C(=O)NCC(=O)O [compound 42] (H-MWFLICFWG-OH) | 108.69 | – | – |
| – | – | – | – | – | CCCC[C@@H]1NC(=O)[C@@H](NC(C)=O)CCCCNC(=O)C[C@@H](C(=O)O)NC(=O)[C@H](Cc2c[nH]c3ccccc23)NC(=O)[C@H](C)NC(=O)[C@H](CC)NC(=O)[C@H]([C@@H](C)CC)NC(=O)[C@H](CC(C)C)NC(=O)[C@H](CC2CCCCC2)NC(=O)[C@H](Cc2c[nH]c3ccccc23)NC1=O [SEQ ID NO: 215, Cyclo-Ac-K*Nle-W-Cha-LI-Abu-AWD*-COOH] (HELM PEPTIDE1{[ac].K.[Nle].W.[Cha].L.I.[Abu].A.W.D}$PEPTIDE1,PEPTIDE1,2:R3-11:R3$$$V2.0) | – | – | % membrane bound β-catenin (staining area threshold), Average (β-catenin [4]; average of lesion samples): 46.4%; % nuclear β-catenin (staining area threshold), Average (β-catenin [4]; average of lesion samples): 1.0%; % nuclear β-catenin (staining area threshold) (β-catenin [4]; single lesion sample, listed as Peptide 2): 0.8% and 1.2% and 1.1%; Activated macrophages (EMS lesions): relative increase; Relative numbers of activated macrophages, foam cells, polymorphonuclear neutrophils, B cells and T cells at the site of lesions (histology) (EMS lesions): increase in the relative numbers; β-Cat FP Hill slope (β-catenin [2]; listed as 2): 0.82 |
| 7.5 to 15 | – | – | 2.9 | 15 | CCCCCCCCCCCCCCCC(=O)N[C@@H](Cc1c[nH]c2ccccc12)C(=O)N(C)[C@@H](Cc1c[nH]c2ccccc12)C(=O)N[C@@H](CCC(=O)O)C(=O)NC(C)(CO)C(=O)N[C@H](C(=O)N[C@@H](CC(C)C)C(=O)N[C@@H](CC(=O)O)C(=O)N[C@@H](CCC(=O)O)C(=O)N[C@@H](Cc1c[nH]cn1)C(=O)NC(C)(C(=O)N[C@@H](CCC(N)=O)C(=O)N[C@@H](CCCNC(=N)N)C(=O)N[C@H](C(=O)N[C@@H](Cc1c[nH]c2ccccc12)C(=O)NCC(=O)O)C(C)C)C(C)C)[C@@H](C)CC (single isomer, unassigned) [compound 396] | – | – | – |
| – | – | – | – | – | O=C(Nc1ccc([N+](=O)[O-])cc1Cl)c1cc(Cl)ccc1O [niclosamide] | – | successfully reversed | – |
| – | – | – | – | – | PKF 115-584 | – | successfully reversed | – |
| – | – | > 30 | 1.7 | 5 | CCCCCCCCCCCCCCCCCC(=O)N[C@@H](Cc1c[nH]c2ccccc12)C(=O)N(C)[C@@H](Cc1c[nH]c2ccccc12)C(=O)N[C@@H](CCC(=O)O)C(=O)NC(C)(CO)C(=O)N[C@H](C(=O)N[C@@H](CC(C)C)C(=O)N[C@@H](CC(=O)O)C(=O)N[C@@H](CCC(=O)O)C(=O)N[C@@H](Cc1c[nH]cn1)C(=O)NC(C)(C(=O)N[C@@H](CCC(N)=O)C(=O)N[C@@H](CCCNC(=N)N)C(=O)N[C@H](C(=O)N[C@@H](Cc1c[nH]c2ccccc12)C(=O)O)C(C)C)C(C)C)[C@@H](C)CC (single isomer, unassigned) [393/500] | – | – | – |
